These results are taken from patent EP0771801B1, “Chromane derivatives” (AMERICAN HOME PRODUCTS CORPORATION, priority 1995, dated 1997).

Where two headings read alike, the source gives them in different places.

A word on the IC50: it is the concentration that gives 50% inhibition.

The target of one assay is T1, 5-HT1a (Homo sapiens, UniProt P08908).
T1 sequence (P08908 1-422): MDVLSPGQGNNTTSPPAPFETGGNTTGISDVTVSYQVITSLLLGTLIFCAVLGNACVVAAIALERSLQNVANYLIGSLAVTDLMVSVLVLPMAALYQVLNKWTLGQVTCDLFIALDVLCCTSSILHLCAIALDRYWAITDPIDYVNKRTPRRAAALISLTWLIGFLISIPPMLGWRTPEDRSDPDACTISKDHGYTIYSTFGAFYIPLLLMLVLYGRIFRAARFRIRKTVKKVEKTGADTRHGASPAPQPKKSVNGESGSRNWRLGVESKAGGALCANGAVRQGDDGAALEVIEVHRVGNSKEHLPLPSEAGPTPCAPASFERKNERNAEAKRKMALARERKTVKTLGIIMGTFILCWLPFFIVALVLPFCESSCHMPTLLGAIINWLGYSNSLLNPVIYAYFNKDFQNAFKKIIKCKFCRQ
Briefly: 5-HT1a binding (method not described).

A further assay deals with T2, dopamine autoreceptor (Rattus norvegicus, UniProt P61169).
T2 construct: from tissue; host or cells: rat striatal brain tissue homogenate
T2 sequence (P61169 whole entry): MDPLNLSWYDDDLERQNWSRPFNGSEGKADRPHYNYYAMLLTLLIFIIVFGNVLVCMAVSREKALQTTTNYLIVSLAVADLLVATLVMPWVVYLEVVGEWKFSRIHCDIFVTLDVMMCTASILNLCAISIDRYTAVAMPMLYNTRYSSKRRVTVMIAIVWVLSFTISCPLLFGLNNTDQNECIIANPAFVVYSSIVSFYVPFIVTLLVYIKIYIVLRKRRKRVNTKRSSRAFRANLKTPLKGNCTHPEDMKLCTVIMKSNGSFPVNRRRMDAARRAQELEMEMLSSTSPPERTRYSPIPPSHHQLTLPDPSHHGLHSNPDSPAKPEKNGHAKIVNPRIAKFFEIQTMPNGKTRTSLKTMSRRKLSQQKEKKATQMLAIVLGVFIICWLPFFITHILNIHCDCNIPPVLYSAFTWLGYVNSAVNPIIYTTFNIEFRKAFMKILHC
Briefly: Affinity for the dopamine autoreceptor: [3H]-quinpirole binding in homogenized rat striatal brain tissue. The note with it: for IC50: [3H]-quinpirole, rat striatal brain tissue, read-out: IC50 (nM) D2 Quin.; for Ratio antagonist: ratio of D2 Spiper IC50 to D2 Quin. IC50 (LowAg/HighAg, predicts intrinsic activity). Here is the method: Affinity for the dopamine autoreceptor was established by a modification of the standard experimental test procedure of Seemen and Schaus, European Journal of Pharmacology 203: 105-109, 1991, wherein homogenized rat striatal brain tissue is incubated with [^3H]-quinpirole (Quin.) at various concentrations of test compound, filtered, washed and counted in a Betaplate scintillation counter.

For a further assay, the target named is α1. Nature of the assay: α1 binding (method not described).

Take `O=C1Cc2c(ccc3c2OC(CNCc2ccccc2)CC3)N1` (centres unmarked) [Example 1a, 2-(Benzylamino-methyl)-3,4,7,9-tetrahydro-2H-pyrano-[2,3-e]indol-8-one]: the IC50 at 5-HT1a (read-out: IC50 (nM) 5-HT1a.) was found to be 34 nM; on dopamine autoreceptor, 0.73 nM; on α1, 244 nM. Further, on dopamine autoreceptor, the Ratio antagonist is reported as 194.
In the case of `Cc1ccc(CNCC2CCc3ccc4c(c3O2)CC(=O)N4)cc1` (centres unmarked) [Example 1d, 2-(4-Methyl-benzylamino-methyl)-3,4,7,9-tetrahydro-2H-pyrano[2,3-e]indol-8-one], the 50% inhibitory concentration (IC50) was found to be 10 nM on 5-HT1a (read-out: IC50 (nM) 5-HT1a.), 0.45 nM at dopamine autoreceptor and 194 nM on α1. For the same molecule, on dopamine autoreceptor, the Ratio antagonist is 229.
As to `O=C1Cc2c(ccc3c2OC(CNCc2ccccc2)CC3)N1` (single isomer, unassigned; (+)) [Example 2a, (+)-2-(benzylamino-methyl)-3,4,7,9-tetrhydro-2H-pyrano[2,3-e]indol-8-one], the IC50 on 5-HT1a (read-out: IC50 (nM) 5-HT1a.) came out at 330 nM; at dopamine autoreceptor, 16.4 nM; at α1, 519 nM. For the same molecule, the Ratio antagonist at dopamine autoreceptor was 45.
For the molecule `O=C1Cc2c(ccc3c2OC(CNCc2ccccc2)CC3)N1` (single isomer, unassigned; (-)) [Example 2b, (-)-2-(benzylamino-methyl)-3,4,7,9-tetrhydro-2H-pyrano[2,3-e]indol-8-one], the half-inhibitory concentration (IC50) on 5-HT1a (read-out: IC50 (nM) 5-HT1a.) came to 17.1 nM; at dopamine autoreceptor it was 0.27 nM; at α1, 330 nM. The Ratio antagonist on dopamine autoreceptor is reported as 265.
In the same order, the values of `O=C1Cc2c(ccc3c2OC(CNCc2ccc(F)cc2)CC3)N1` (centres unmarked) [Example 1b, 2-(4-Fluoro-benzylamino-methyl)-3,4,7,9-tetrahydro-2H-pyrano[2,3-e]indol-8-one] are 16 nM, 0.83 nM, 352 nM and 375.
With `Cc1ccc(CNCC2CCc3ccc4c(c3O2)CC(=O)N4)c(C)c1` (centres unmarked) [Example 1f, 2-(2,4-Dimethyl-benzylamino-methyl)-3,4,7,9-tetrahydo-2H-pyrano[2,3-e]indol-8-one], the figures for the 50% inhibitory concentration (IC50) at 5-HT1a (IC50 (nM) 5-HT1a.), at dopamine autoreceptor and on α1 were 15 nM, 2.62 nM and 81 nM, respectively. Further, the Ratio antagonist on dopamine autoreceptor is recorded as 150.
On to `COc1ccc(CNCC2CCc3ccc4c(c3O2)CC(=O)N4)cc1` (centres unmarked) [Example 1c, 2-(4-Methoxy-benzylamino-methyl)-3,4,7,9-tetrahydro-2H-pyrano[2,3-e]indol-8-one], for which the results for the IC50 on 5-HT1a (read-out: IC50 (nM) 5-HT1a.), on dopamine autoreceptor and on α1 were 38 nM, 0.96 nM and 258 nM, respectively. For the same molecule, at dopamine autoreceptor, the Ratio antagonist is reported as 307.
As to `O=C1Cc2c(ccc3c2OC(CNCc2ccc(Cl)cc2)CC3)N1` (centres unmarked) [Example 1e, 2-(4-Chloro-benzylamino-methyl)-3,4,7,9-tetrahydro-2H-pyrano[2,3-e]indol-8-one], the IC50 at 5-HT1a (read-out: IC50 (nM) 5-HT1a.) is 7.53 nM; on dopamine autoreceptor it was 0.64 nM; on α1, 184 nM. Besides, the Ratio antagonist on dopamine autoreceptor is on record as 233.
